From US20050272682A1, “SiRNA targeting PI3K signal transduction pathway and siRNA-based therapy” (priority 2004, published 2005)
“Also recorded” adds a separate entry of the source.

What was measured:
Type in all cases: cell-based, human
[1] = test system: PI3K/Akt pathway; assay: Western blot and immunofluorescence of Akt1, p85α and pAkt in transfected KM20 cells
Method: (§1) Cell culture transfection was carried out with siPORT™ Amine transfection agent according to the manufacturer's protocol. Three days after transfection with the siRNA duplexes, cells were harvested and protein expression was assessed by Western blot.
(§2) Western immunoblot analyses were performed as described previously (Wang, et al., 2000). Cells were lysed with TNN buffer at 4° C. for 30 min. Lysates were clarified by centrifugation (10,000×g for 30 min at 4° C.) and protein concentrations determined using the method of Bradford (1976). Briefly, total protein (100 μg) was resolved on a 10% polyacrylamide gel and transferred to Immobilon-P […] membranes. Filters were incubated overnight at 4° C. in blotting solution (Tris-buffered saline containing 5% nonfat dried milk and 0.1% Tween 20), followed by a 1-h incubation with primary antibodies. Filters were washed three times in a blocking solution and incubated with horseradish peroxidase-conjugated secondary antibodies for 1 h. After three additional washes, the immune complexes were visualized by ECL detection.
KM20 cells were seeded onto sterile glass coverslips in 60 mm dishes and cultured for 16-24 h before treatment. Cells were transfected with pik3r1 or Akt1 or scrambled (control) siRNA sequences. At 96 h posttransfection, cells were washed in PBS, fixed in cold methanol for 5 min, and washed in three changes of PBS followed by a solution of 10% normal goat serum. After washing, cells were then incubated with the primary antibody (diluted in PBS with 1.5% normal goat serum) for 60 min. […] After three final washes, the slides were viewed with a fluorescence microscope.
It is speculated that siRNA directed to PI3K/Akt pathway components would inhibit cell growth and induce apoptosis in human colorectal cancer cell lines. […] In view of evidence that Akt plays a critical role in the prosurvival properties of PI3K (Nichol son, et al., 2002), activation of Akt in pik3r1 and Akt1 siRNA treated cells was then analyzed by Western blot and immunofluorescent analysis using a phospho-specific Ser473 Akt antibody.

[2] = test system: KM20 cells; assay: MTT assay, KM20 cells; conditions: KM20 cells at 96, 120 and 144 h after transfection
Method: (§3) Cells were transfected with pik3r1, Akt1 or scrambled siRNA at a density of 2×10^5 cells/well in 12 well plates. After 24 h, adherent cells were detached by rapid trypsinization, counted in a Hausser chamber and replated into 96 well plates at a concentration of 2×10^3 cells/well. […]

[3] = test system: KM12C cells; assay: MTT assay, KM12C cells; conditions: KM12C cells at 96, 120 and 144 h after transfection
Method: as §3

[4] = test system: KM20 cells; assay: DNA fragmentation assay (Cell Death Detection ELISA), KM20 cells; conditions: KM20 cells
Method: (§4) Cells were transfected with pik3r1, Akt1 or scrambled siRNA. After 48 h, adherent cells were detached by rapid trypsinization, counted in a Hausser chamber and seeded at a density of 2×10^3 cells per well in 96-well flat-bottom microtiter plates and incubated in 250 μl of growth medium for 24 h at 37° C. Media were removed and either new complete media or TRAIL (100 ng/mL) was added in a final volume of 200 μL and allowed to grow for 24 h at 37° C. After treatment, DNA fragmentation was evaluated by examination of cytoplasmic histone-associated DNA fragments (mono- and oligonucleosomes) using a Cell Death Detection ELISA^Plus kit (Roche Molecular Biochemicals) according to the manufacturer's instructions and as previously described (Wang. et al., 2002). The experiments were repeated on at least 3 separate occasions.

[5] = test system: KM12C cells; assay: DNA fragmentation assay (Cell Death Detection ELISA), KM12C cells
Method: as §4

[6] = test system: KM20 cells; assay: Western blot of apoptosis-related proteins, KM20 cells
Method: as §1, §2

[7] = test system: KM20 cells; assay: Ribonuclease protection assay, KM20 cells
Method: Cells were treated with pik3r1 and Akt1 siRNA and harvested 72 h later. RNA was isolated from cells using TRIzol® RNA reagent according to the manufacturer's protocol. A multiprobe template set (hAPO3c), which assesses expression of caspase 8, FASL, FAS, DR3, Decoy receptor 1 (DcR1), DR4, DR5, TRAIL, TNFR p55, TRADD and the housekeeping genes GAPDH and L32, as well as the Human Apoptosis hAPO-2b and hAPO-2c Template Set were labeled using Ambion T7 MAXIscript. The Ambion RPA III kit was then utilized to hybridize the RNA from the samples with the labeled probes. After RNAse treatment of hybridized samples, protected products were resolved on a 5% acrylamide gel, adsorbed onto filter paper, and exposed to Kodak BioMax MR film in a cassette at −70° C. and analyzed as previously described (Wang, et al., 2000).

[8] = siRNA alone compared to scrambled sequence
[9] = siRNA in combination with TRAIL 100 ng/mL
[10] = siRNA in combination with TRAIL

pik3r1 siRNA: siRNA to human pik3r1 (p85α) used in KM20/KM12C cells and xenografts; SEQ ID NO:24 vs. SEQ ID NO:25 (chain 1 GAAUAUACCCGCACAUCCCUU; chain 2 GGGAUGUGCGGGUAUAUUCUU; listed as RNA, chemistry not given here)
pAkt expression (immunofluorescent analysis) ([1]; 96 h posttransfection, compared with scrambled sequences): suppression | p85α protein levels ([1]; Western blot, 72, 96 and 120 h after transfection in Example 19): reduced; also recorded: decreased | pAkt expression levels ([1]; Western blot, phospho-Ser473 Akt antibody): suppressed; also recorded: decreased | cell viability (MTT) [2]: significantly decreased | cell viability (MTT) [3]: significantly decreased | DNA fragmentation (apoptosis) [4, 8]: increase; also recorded: induced | TRAIL-mediated apoptosis (DNA fragmentation) [4, 9]: significant augmentation | DNA fragmentation (apoptosis) [5, 8]: increase; also recorded: induced | TRAIL-mediated apoptosis (DNA fragmentation) [5, 9]: significant augmentation | Bax protein expression [6]: increased | Bcl-2 protein expression [6]: decreased | Bcl-xL protein expression [6]: decreased | caspase-9 activation (35 kDa large active subunit) [6]: activation | cytochrome C release [6]: induced | protein expression for DR4/DR5 [6]: increased | BID cleavage [6, 10]: BID cleavage | caspase-8 activation [6, 10]: activated | cleavage of pro-caspase-3 ([6]; siRNA in combination with TRAIL compared with TRAIL alone): enhanced | Bcl-w mRNA expression [7]: decreased | Bcl-x (L, S) mRNA expression [7]: decreased | expression of the other apoptotic-related genes in the probe set [7]: no marked change | mRNA expression of DR4 and DR5 [7]: increased
